# Assay results as given in article PMC6042793 (PLoS ONE, 2018).
# How the values were obtained:
# [1] = target: sialidase activity of A/Puerto Rico/8/1934 (H1N1) (Influenza A virus, UniProt P03468); assay type: biochemical; conditions: pH 6.5
# [2] = test system: sialidase activity of A/Memphis/1/1971 (H3N2); assay type: biochemical, influenza A virus (H3N2); conditions: pH 6.5
# [3] = test system: sialidase activity of A/Shizuoka/17/2016 (H1N1pdm); assay type: biochemical, influenza A virus (H1N1pdm); conditions: pH 6.5
# [4] = test system: sialidase activity of A/Shizuoka/19/2016 (H1N1pdm); assay type: biochemical, influenza A virus (H1N1pdm); conditions: pH 6.5
# [5] = target: sialidase activity of B/Lee/1940 (Influenza B virus, UniProt P03474); assay type: biochemical; conditions: pH 6.5
# Sequence of sialidase activity of B/Lee/1940 (P03474 whole entry): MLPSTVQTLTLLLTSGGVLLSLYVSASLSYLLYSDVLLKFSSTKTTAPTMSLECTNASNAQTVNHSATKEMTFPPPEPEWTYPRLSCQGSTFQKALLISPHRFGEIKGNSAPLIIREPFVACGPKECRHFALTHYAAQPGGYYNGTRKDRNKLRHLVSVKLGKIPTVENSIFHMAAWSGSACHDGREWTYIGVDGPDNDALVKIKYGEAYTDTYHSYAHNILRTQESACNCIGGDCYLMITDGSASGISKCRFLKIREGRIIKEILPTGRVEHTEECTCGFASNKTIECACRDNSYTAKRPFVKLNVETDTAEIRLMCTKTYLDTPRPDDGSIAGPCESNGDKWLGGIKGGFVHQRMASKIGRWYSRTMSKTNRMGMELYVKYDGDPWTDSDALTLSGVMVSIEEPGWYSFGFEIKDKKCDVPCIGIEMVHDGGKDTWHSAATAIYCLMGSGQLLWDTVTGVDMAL
# MuV sialidase activity = MuV sialidase activity (Mumps virus genotype B, UniProt P11235); assay type: biochemical
# Sequence of MuV sialidase activity (P11235 whole entry): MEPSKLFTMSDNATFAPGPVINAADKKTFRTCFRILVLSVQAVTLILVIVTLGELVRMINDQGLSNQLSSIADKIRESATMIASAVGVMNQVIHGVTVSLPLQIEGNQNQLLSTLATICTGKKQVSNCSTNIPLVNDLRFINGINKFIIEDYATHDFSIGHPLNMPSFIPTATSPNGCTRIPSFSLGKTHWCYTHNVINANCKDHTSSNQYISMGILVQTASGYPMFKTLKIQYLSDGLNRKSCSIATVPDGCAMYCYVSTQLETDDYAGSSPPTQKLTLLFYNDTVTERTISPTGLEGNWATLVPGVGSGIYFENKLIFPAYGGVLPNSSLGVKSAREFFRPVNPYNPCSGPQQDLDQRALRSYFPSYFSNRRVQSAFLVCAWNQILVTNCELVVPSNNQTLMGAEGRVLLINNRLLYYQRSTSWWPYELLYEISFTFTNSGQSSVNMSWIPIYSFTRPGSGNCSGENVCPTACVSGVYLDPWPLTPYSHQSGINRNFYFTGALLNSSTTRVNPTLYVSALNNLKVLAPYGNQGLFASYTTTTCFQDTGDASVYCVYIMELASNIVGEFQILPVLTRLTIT
# [6] = target: S. pneumoniae sialidase activity (Streptococcus pneumoniae, UniProt P62575); assay type: biochemical; design: key to Test result in the BTP3-based filter method in the presence of NAI: -, not detected; conditions: for NAI susceptibility in the BTP3-based filter method (fluorescence in the presence of NAI): pH 6.5, 56°C 15 min
# Sequence of S. pneumoniae sialidase activity (P62575 54-1035): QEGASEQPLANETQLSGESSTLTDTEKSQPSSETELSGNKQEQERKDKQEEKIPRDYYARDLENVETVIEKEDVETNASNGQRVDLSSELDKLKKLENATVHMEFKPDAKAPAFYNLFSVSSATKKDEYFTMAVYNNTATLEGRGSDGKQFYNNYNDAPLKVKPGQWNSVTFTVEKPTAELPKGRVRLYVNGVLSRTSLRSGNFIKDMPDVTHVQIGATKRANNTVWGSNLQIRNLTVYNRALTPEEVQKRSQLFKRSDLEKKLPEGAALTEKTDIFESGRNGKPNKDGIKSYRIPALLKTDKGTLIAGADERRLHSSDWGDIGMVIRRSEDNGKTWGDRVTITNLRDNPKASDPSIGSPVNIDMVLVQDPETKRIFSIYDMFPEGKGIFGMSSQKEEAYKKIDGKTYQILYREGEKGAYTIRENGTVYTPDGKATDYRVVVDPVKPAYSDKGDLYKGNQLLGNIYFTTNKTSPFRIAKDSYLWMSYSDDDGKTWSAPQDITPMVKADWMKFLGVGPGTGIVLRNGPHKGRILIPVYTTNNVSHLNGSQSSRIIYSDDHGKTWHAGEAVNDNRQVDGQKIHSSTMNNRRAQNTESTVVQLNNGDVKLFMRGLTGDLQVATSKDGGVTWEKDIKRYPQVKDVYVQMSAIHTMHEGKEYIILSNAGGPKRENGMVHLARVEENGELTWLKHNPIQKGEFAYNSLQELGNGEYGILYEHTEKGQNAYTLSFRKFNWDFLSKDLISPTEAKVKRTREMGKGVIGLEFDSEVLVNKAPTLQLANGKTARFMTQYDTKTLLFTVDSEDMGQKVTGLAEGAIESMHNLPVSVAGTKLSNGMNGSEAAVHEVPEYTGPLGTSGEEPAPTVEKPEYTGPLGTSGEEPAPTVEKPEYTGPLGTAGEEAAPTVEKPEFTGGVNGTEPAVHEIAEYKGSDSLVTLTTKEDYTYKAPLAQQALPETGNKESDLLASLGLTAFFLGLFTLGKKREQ
# Sequence of sialidase activity of A/Puerto Rico/8/1934 (H1N1) (P03468 whole entry, looked up): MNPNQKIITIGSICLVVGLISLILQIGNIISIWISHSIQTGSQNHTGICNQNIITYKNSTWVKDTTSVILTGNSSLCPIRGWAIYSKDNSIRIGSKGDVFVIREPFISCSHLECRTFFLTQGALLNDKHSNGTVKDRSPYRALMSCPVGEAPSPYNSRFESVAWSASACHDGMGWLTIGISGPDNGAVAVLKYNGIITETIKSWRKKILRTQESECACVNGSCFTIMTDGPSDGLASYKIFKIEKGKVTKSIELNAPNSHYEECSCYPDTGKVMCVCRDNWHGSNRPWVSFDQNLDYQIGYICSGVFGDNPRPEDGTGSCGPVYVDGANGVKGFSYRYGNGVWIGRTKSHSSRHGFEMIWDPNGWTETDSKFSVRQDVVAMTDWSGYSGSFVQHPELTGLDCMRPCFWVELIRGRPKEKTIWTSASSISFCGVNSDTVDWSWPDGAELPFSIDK
SMILES,BTP3 fluorescence on the membrane in the presence of NAI [1],BTP3 fluorescence on the membrane in the presence of NAI [2],BTP3 fluorescence on the membrane in the presence of NAI [3],BTP3 fluorescence on the membrane in the presence of NAI [4],BTP3 fluorescence on the membrane in the presence of NAI [5],Test result in the BTP3-based filter method in the presence of NAI (MuV sialidase activity),Test result in the BTP3-based filter method in the presence of NAI [6],NAI susceptibility in the BTP3-based filter method (fluorescence in the presence of NAI) [6]
"[H]/N=C(\N)N[C@H]1C=C(C(=O)O)O[C@@H]([C@H](OC)[C@H](O)CO)[C@@H]1NC(C)=O [LV, laninamivir]",not observed,not observed,not observed,not observed,not observed,Positive,Positive,showed fluorescence
"CCOC(=O)C1=C[C@@H](OC(CC)CC)[C@H](NC(C)=O)[C@@H](N)C1 [OV, oseltamivir]",not observed,not observed,not observed,not observed,not observed,Positive,-,susceptible
"CC(=O)N[C@H]1[C@H]([C@H](O)[C@H](O)CO)OC(C(=O)O)=C[C@@H]1N=C(N)N [ZV, zanamivir]",,not observed,not observed,not observed,,Positive,Positive,showed fluorescence
"CCC(CC)[C@H](NC(C)=O)[C@@H]1[C@H](O)[C@@H](C(=O)O)C[C@H]1N=C(N)N [PV, peramivir]",not observed,not observed,not observed,not observed,not observed,Positive,Positive,showed fluorescence
